According to article PMC5418947 (The Open Medicinal Chemistry Journal, 2017):
pIC50: −log10 of the molar value. Read-outs that look alike come from different tables or passages of the source.

What was measured:
[1] = target: TcAChE (from electric eel) (Electrophorus electricus, UniProt O42275); assay: Cholinesterase assay; assay type: biochemical
[2] = target: eqBuChE (from equine serum) (Equus caballus, UniProt P81908); assay: biochemical; assay type: biochemical
[3] = DPPH free radical scavenging; assay type: physicochemical; details: read-out: DPPH IC50; 0.1 mM DPPH in methanol, 30 min, room temperature, 517 nm

Sequence of TcAChE (from electric eel) (O42275 24-633): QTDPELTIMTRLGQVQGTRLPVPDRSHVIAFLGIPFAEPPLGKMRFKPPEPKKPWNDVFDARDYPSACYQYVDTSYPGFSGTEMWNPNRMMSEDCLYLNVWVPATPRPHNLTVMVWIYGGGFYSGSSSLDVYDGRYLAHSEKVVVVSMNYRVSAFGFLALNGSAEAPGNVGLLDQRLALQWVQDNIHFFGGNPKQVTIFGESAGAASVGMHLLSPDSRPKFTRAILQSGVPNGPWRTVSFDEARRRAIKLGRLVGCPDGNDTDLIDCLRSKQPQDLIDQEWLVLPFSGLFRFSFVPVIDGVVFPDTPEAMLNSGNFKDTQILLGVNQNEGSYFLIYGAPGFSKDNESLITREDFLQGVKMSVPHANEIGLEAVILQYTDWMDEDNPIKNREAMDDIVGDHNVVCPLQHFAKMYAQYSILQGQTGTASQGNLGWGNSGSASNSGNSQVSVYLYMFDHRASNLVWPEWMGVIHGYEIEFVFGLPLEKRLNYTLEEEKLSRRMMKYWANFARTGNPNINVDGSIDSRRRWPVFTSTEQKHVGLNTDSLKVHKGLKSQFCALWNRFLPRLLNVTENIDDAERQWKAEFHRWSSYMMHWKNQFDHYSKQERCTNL
Sequence of eqBuChE (from equine serum) (P81908 whole entry): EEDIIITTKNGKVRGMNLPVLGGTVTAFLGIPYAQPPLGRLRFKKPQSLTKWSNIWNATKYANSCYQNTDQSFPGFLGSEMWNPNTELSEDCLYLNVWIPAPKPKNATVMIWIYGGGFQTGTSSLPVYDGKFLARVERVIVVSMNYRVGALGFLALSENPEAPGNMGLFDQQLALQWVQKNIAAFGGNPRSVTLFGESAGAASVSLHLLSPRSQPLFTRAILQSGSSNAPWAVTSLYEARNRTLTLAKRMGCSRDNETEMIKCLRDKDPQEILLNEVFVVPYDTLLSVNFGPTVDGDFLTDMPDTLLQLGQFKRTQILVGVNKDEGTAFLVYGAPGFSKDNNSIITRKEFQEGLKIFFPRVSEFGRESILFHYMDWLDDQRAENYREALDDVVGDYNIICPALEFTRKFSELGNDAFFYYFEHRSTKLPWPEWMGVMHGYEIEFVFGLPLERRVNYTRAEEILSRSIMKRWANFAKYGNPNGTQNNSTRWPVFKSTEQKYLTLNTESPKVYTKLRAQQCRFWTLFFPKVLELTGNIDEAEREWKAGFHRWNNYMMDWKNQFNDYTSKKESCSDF

SMILES | pIC50 [1] | BuChE inhibitor activity, fold higher than tacrine [2] | BuChE selectivity index (SI) = IC50(TcAChE)/IC50(eqBuChE) [2] | pIC50 [2] | pIC50 [3] | BuChE selectivity index (SI) = IC50(TcAChE)/IC50(eqBuChE) ([2]; ratio of IC50 values) | BuChE inhibitor activity, fold higher than tacrine ([2]; relative to tacrine) | AChE inhibitory activity (in words) ([1]; Ellman's method)
Cc1c(C)c2c(c(C)c1O)CCC(C)(C(=O)NCCCCCCNc1c3c(nc4ccccc14)CCCC3)O2 (stereo not drawn) [Compound 8d, 6-Hydroxy-2,5,7,8-tetramethyl-N-{6-[(1,2,3,4-tetrahydroacridin-9-yl)amino]hexyl}-3,4-dihydro-2H-1-benzopyran-2-carboxamide] | 7.31 | more than 3 fold | 10.40 | 8.32 | 4.90 |  |  | 
c1ccc2c(NCCCCCCCN3CCc4c([nH]c5ccccc45)C3)c3c(nc2c1)CCCC3 [Compound 14, N-(7-(3,4-dihydro-1H-pyrido[3,4-b]indol-2(9H)-yl)heptyl)-1,2,3,4-tetrahydroacridin-9-amine] |  |  |  | 8.50 | 3.89 | 5.49 | more than 3 fold | 
c1ccc2c3c([nH]c2c1)CN(CCN1CCc2c([nH]c4ccccc24)C1)CC3 [Compound 16, 1,2-Bis(3,4-dihydro-1H-pyrido[3,4-b]indol-2(9H)-yl)ethane] | < 4.00 |  |  | 5.77 | 3.90 | >58.88 |  | no inhibitory activity
Cc1c(C)c2c(c(C)c1O)CCC(C)(C(=O)NCCCNc1c3c(nc4ccccc14)CCCC3)O2 (stereo not drawn) [Compound 8b, 6-Hydroxy-2,5,7,8-tetramethyl-N-{3-[(1,2,3,4-tetrahydroacridin-9-yl)amino]propyl}-3,4-dihydro-2H-1-benzopyran-2-carboxamide] | 5.82 |  |  | 7.90 | 4.94 | 121.62 |  | 
Cc1c(C)c2c(c(C)c1O)CCC(C)(C(=O)O)O2 (stereo not drawn) [Trolox, reference compound] |  |  |  |  | 4.76 |  |  | 
Cc1c(C)c2c(c(C)c1O)CCC(C)(C(=O)NCCCCNc1c3c(nc4ccccc14)CCCC3)O2 (stereo not drawn) [Compound 8c, 6-Hydroxy-2,5,7,8-tetramethyl-N-{4-[(1,2,3,4-tetrahydroacridin-9-yl)amino]butyl}-3,4-dihydro-2H-1-benzopyran-2-carboxamide] | 5.66 |  | 196.07 | 7.95 | 4.84 |  |  | 
Cc1c(C)c2c(c(C)c1O)CCC(C)(C(=O)NCCNc1c3c(nc4ccccc14)CCCC3)O2 (stereo not drawn) [Compound 8a, 6-Hydroxy-2,5,7,8-tetramethyl-N-{2-[(1,2,3,4-tetrahydroacridin-9-yl)amino]ethyl}-3,4-dihydro-2H-1-benzopyran-2-carboxamide] | 5.82 |  | 11.87 | 6.89 | 4.34 |  |  | 
